From ChEMBL document CHEMBL4673226, “Development of 5-Aminopyrazole-4-carboxamide-based Bumped-Kinase Inhibitors for Cryptosporidiosis Therapy” (J Med Chem, 2019)
Converted amounts (≈) assume the structure as drawn. The source made the active and inactive calls. The rule behind the calls is not given here.

Legend:
HepG2 = experiment: Toxicity in human HepG2 cells; format: cell-based
[1] = Toxicity in human CRL-8155 cells; format: cell-based
Cryptosporidium parvum [2] = experiment: Antimicrobial activity against nano-luciferase-expressing Cryptosporidium parvum infected in IFN-gamma KO B6.129S7-Ifngtm1Ts/J mouse assessed as log reduction of infection at 60 mg/kg, po QD for 5 days beginning on day 6 post infection relative untreated control; settings: time 5 day
[3] = Drug level in mouse fecus at 25 mg/kg, po; settings: read-out: Drug uptake, in vivo
[4] = Clearance in mouse at 25 mg/kg, po; format: ADME, organism-based; settings: in vivo
[5] = AUC in mouse at 25 mg/kg, po; format: ADME, organism-based; design: dose 25 mg/kg; settings: in vivo
[6] = Protein binding in human plasma by dialysis method
[7] = Solubility in pH 2.0 solution
[8] = Solubility in pH 6.5 solution
[9] = Protein binding in mouse plasma by dialysis method
[10] = Inhibition of Cryptosporidium parvum CDPK1 assessed as reduction in ATP consumption using BioSyntide-2 substrate incubated for 90 mins by luciferase reporter gene assay
[11] = target: Proto-oncogene tyrosine-protein kinase Src (Homo sapiens, UniProt P12931); experiment: Inhibition of SRC (unknown origin); format: ADME
Cryptosporidium parvum [12] = experiment: Antimicrobial activity against nano-luciferase-expressing Cryptosporidium parvum infected in IFN-gamma KO B6.129S7-Ifngtm1Ts/J mouse assessed as log reduction of infection at 25 mg/kg, po QD for 5 days beginning on day 6 post infection relative untreated control; format: functional; settings: time 5 day
[13] = Clearance in mouse at 10 mg/kg, po; format: ADME, organism-based; settings: in vivo
[14] = AUC in mouse at 10 mg/kg, po; format: ADME, organism-based; design: dose 10 mg/kg; settings: in vivo
Cryptosporidium parvum [15] = experiment: Antimicrobial activity against nano-luciferase-expressing Cryptosporidium parvum infected in IFN-gamma KO B6.129S7-Ifngtm1Ts/J mouse assessed as log reduction of infection at 20 mg/kg, po BID for 5 days beginning on day 6 post infection relative untreated control; format: functional, organism-based; settings: time 5.0 day
Cryptosporidium parvum [16] = experiment: Antimicrobial activity against nano-luciferase-expressing Cryptosporidium parvum infected in IFN-gamma KO B6.129S7-Ifngtm1Ts/J mouse assessed as log reduction of infection at 10 mg/kg, po BID for 5 days beginning on day 6 post infection relative untreated control; format: functional, organism-based; settings: time 5.0 day
Cryptosporidium parvum [17] = experiment: Antimicrobial activity against nano-luciferase-expressing Cryptosporidium parvum infected in IFN-gamma KO B6.129S7-Ifngtm1Ts/J mouse assessed as log reduction of infection at 30 mg/kg, po BID for 5 days beginning on day 6 post infection relative untreated control; format: functional, organism-based; settings: time 5.0 day
[18] = Half life in mouse at 25 mg/kg, po; settings: in vivo
[19] = target: Voltage-gated inwardly rectifying potassium channel KCNH2 (Homo sapiens, UniProt Q12809); experiment: Inhibition of human ERG by thallium flux assay
Cryptosporidium parvum [20] = experiment: Antimicrobial activity against nano-luciferase-expressing Cryptosporidium parvum infected in human HCT8 cells incubated for 72 hrs by luciferase reporter gene assay; format: functional, organism-based; settings: HCT-8, 72 h
in vivo [21] = settings: mouse, po, 25 mg/kg
in vivo [22] = settings: mouse, po, 25 mg/kg; remark: listed apart in the source

Chain of Proto-oncogene tyrosine-protein kinase Src (P12931 2-536 limits assumed): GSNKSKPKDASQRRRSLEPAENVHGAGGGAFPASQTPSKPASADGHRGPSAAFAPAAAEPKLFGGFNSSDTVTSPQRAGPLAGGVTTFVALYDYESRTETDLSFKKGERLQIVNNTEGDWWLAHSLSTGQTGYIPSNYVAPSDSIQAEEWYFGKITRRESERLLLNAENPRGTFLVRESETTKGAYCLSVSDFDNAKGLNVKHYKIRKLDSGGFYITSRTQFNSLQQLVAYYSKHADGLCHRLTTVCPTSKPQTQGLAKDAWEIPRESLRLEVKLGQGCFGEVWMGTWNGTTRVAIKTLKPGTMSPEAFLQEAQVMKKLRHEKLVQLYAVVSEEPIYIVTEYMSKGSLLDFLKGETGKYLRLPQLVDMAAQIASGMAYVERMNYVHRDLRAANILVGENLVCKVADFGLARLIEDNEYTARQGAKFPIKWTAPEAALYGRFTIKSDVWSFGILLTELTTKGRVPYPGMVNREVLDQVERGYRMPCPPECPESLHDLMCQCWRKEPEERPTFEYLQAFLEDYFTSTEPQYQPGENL
Chain of Voltage-gated inwardly rectifying potassium channel KCNH2 (Q12809 whole entry): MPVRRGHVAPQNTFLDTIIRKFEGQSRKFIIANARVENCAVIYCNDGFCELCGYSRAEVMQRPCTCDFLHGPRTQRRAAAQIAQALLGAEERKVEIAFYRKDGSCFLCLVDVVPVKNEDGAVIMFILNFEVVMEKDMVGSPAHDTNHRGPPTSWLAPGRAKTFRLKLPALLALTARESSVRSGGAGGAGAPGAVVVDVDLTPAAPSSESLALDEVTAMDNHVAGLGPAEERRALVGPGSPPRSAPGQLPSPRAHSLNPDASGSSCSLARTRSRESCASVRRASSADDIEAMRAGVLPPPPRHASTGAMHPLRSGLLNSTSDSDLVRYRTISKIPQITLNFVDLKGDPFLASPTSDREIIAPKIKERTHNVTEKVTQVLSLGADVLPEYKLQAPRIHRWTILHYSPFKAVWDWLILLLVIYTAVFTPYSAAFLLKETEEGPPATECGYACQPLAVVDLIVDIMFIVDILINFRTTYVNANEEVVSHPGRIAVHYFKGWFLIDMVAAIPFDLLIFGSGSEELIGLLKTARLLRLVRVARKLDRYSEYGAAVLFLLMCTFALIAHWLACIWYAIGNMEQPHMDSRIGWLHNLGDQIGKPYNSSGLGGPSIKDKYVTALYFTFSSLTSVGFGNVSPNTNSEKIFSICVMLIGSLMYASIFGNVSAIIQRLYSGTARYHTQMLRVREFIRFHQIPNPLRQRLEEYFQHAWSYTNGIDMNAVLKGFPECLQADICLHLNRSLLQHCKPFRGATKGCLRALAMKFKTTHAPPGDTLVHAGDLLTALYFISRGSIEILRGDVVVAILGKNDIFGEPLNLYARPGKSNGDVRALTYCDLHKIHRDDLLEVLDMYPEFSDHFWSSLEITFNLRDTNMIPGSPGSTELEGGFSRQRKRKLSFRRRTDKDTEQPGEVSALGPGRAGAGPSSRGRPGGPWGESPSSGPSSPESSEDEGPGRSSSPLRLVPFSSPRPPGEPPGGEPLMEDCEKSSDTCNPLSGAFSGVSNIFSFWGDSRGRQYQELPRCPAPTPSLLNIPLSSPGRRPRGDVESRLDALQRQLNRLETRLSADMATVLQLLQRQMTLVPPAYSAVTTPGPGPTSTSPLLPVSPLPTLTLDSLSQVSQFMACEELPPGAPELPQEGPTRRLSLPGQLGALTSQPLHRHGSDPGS

| Structure (SMILES) | Activity (HepG2) | Activity [1] | concentration [3] [µM] | CL/F [4] [mL/min] | AUC [5] [µmol·min/L] | solubility ([7]; buffer) [µM] | solubility ([8]; buffer) [µM] | IC50 [10] [nM] | IC50 [11] [nM] | further results |
| --- | --- | --- | --- | --- | --- | --- | --- | --- | --- | --- |
| CC(C)(CO)n1nc(-c2ccc3nc(OC4CC4)ccc3c2)c(C(N)=O)c1N | Non-Toxic | Non-Toxic |  |  |  |  |  |  |  |  |
| CCOc1ccc2cc(-c3nn(CC(C)(C)CO)c(N)c3C(N)=O)ccc2c1 | Non-Toxic | Non-Toxic | 7.6 | 2.1 | 621.1 | > 100 | 20.6 (≈ 7.88 µg/mL) | 6.6 | 6300 | FC (Cryptosporidium parvum [2]): -0.03; PPB [6]: 94%; PPB [9]: 92% |
| CCOc1ccc2cc(-c3nn(CC4CC4)c(N)c3C(N)=O)ccc2c1 | Non-Toxic | Non-Toxic | 54 | 0.5 | 2800.8 |  |  | 0.03 | 10000 | log reduction (Cryptosporidium parvum [12]): 0.76; PPB [6]: 95%; PPB [9]: 97% |
| C#CCOc1ccc2cc(-c3nn(C(C)(C)C)c(N)c3C(N)=O)ccc2c1 | Non-Toxic | Non-Toxic |  |  |  |  |  |  |  |  |
| CCOc1ccc2cc(-c3nn(C(C)CCO)c(N)c3C(N)=O)cnc2c1 (stereo unspecified) | Non-Toxic | Non-Toxic | 1.1 |  |  | 78 (≈ 28.8 µg/mL) | > 100 |  | 3500 | FC (Cryptosporidium parvum [2]): 3.41; CL/F [13]: 1.9 mL/min; AUC [14]: 339 µmol·min/L; PPB [6]: 84%; PPB [9]: 86% |
| CCOc1ccc2cc(-c3nn(C(C)(C)CO)c(N)c3C(N)=O)ccc2n1 | Non-Toxic | Non-Toxic | 0.41 | 0.4 | 11412.6 | > 100 | > 100 | 3.1 | > 10000 | Activity (Cryptosporidium parvum [15]): inactive; Activity (Cryptosporidium parvum [16]): inactive; FC (Cryptosporidium parvum [2]): 3.15; PPB [6]: 84%; PPB [9]: 80% |
| CC(C)(CO)n1nc(-c2ccc3cc(OC4CC4)ccc3c2)c(C(N)=O)c1N | Non-Toxic | Non-Toxic | 3.5 | 0.3 | 41782 | 89 (≈ 33.9 µg/mL) | 92.9 (≈ 35.3 µg/mL) | 6.9 | > 10000 | FC (Cryptosporidium parvum [2]): 4.47; PPB [9]: 80% |
| CC(C)(CCO)n1nc(-c2ccc3cc(OC4CC4)ccc3c2)c(C(N)=O)c1N | Non-Toxic | Non-Toxic |  | 1 | 483.2 | > 100 |  | 3.8 | > 10000 |  |
| CCOc1ccc2cc(-c3nn(C(C)(C)CCO)c(N)c3C(N)=O)cnc2c1 | Non-Toxic | Non-Toxic |  |  |  | 87.9 (≈ 33.7 µg/mL) | > 100 | 5.7 | 2500 |  |
| CCOc1ccc2cc(-c3nn(C(C)(C)CO)c(N)c3C(N)=O)cnc2c1 | Non-Toxic | Non-Toxic | 2.9 | 1 | 50798.1 | > 50 | > 50 | 4.1 | 4700 |  |
| CCOc1ccc2cc(-c3nn(C(C)(C)CCO)c(N)c3C(N)=O)ccc2n1 | Non-Toxic | Non-Toxic |  |  |  |  |  |  |  |  |
| CC(C)(CO)Cn1nc(-c2ccc3nc(OC4CC4)ccc3c2)c(C(N)=O)c1N | Non-Toxic | Non-Toxic |  |  |  |  |  |  |  |  |
| CC(C)(CCO)n1nc(-c2cnc3cc(OC4CC4)ccc3c2)c(C(N)=O)c1N | Non-Toxic | Non-Toxic |  |  |  | 88.8 (≈ 35.1 µg/mL) |  | 3 | > 10000 |  |
| CCOc1ccc2cc(-c3nn(CC(C)(C)CO)c(N)c3C(N)=O)ccc2n1 | Non-Toxic | Non-Toxic |  |  |  |  |  |  |  | CL/F [13]: 5.1 mL/min; AUC [14]: 140.2 µmol·min/L |
| CC(C)(CCO)n1nc(-c2ccc3nc(OC4CC4)ccc3c2)c(C(N)=O)c1N | Non-Toxic | Non-Toxic |  | 6.7 | 193.6 | 96 (≈ 38 µg/mL) | > 100 | 2.3 | > 10000 |  |
| CC(CCO)n1nc(-c2ccc3cc(OC4CC4)ccc3c2)c(C(N)=O)c1N (stereo unspecified) | Non-Toxic | Non-Toxic | 10.3 | 0.3 | 4332.8 | > 100 | > 100 | 6 | > 10000 | FC (Cryptosporidium parvum [2]): 4.78; PPB [6]: 95%; PPB [9]: 95% |
| CCOc1ccc2cc(-c3nn(C(C)(C)CO)c(N)c3C(N)=O)ccc2c1 | Non-Toxic | Non-Toxic | 7.1 | 0.2 | 9365 | 18.8 (≈ 6.93 µg/mL) | 8 (≈ 2.95 µg/mL) | 9 | > 10000 | log reduction (Cryptosporidium parvum [12]): 0.81 |
| CC(C)(CO)n1nc(-c2cnc3cc(OC4CC4)ccc3c2)c(C(N)=O)c1N | Non-Toxic | Non-Toxic |  |  |  | 89 (≈ 33.9 µg/mL) | 44.2 (≈ 16.9 µg/mL) | 1.9 | > 10000 |  |
| CC(C)(CO)Cn1nc(-c2cnc3cc(OC4CC4)ccc3c2)c(C(N)=O)c1N | Non-Toxic | Non-Toxic |  |  |  | > 100 | > 100 | 0.1 | > 10000 |  |
| CCOc1ccc2cc(-c3nn(C(C)CCO)c(N)c3C(N)=O)ccc2c1 (stereo unspecified) | Non-Toxic | Non-Toxic |  | 0.8 | 1738 | > 100 | 56.7 (≈ 20.9 µg/mL) | 2 | 10000 | Activity (Cryptosporidium parvum [17]): Active; FC (Cryptosporidium parvum [2]): 2.62; PPB [6]: 88%; PPB [9]: 71% |
| CCOc1ccc2cc(-c3nn(C(C)CCO)c(N)c3C(N)=O)ccc2n1 (stereo unspecified) | Non-Toxic | Non-Toxic |  |  |  |  |  |  |  |  |
| CC(CCO)n1nc(-c2ccc3nc(OC4CC4)ccc3c2)c(C(N)=O)c1N (stereo unspecified) | Non-Toxic | Non-Toxic |  | 0.7 | 1154.1 |  |  | 5.9 | > 10000 | half-life [18]: 1.42 h; solubility ([7]; pH 2.0 solution): > 100 µM; solubility ([8]; pH 6.5 solution): 98 µM (≈ 37.4 µg/mL); fraction unbound [9]: 0.23; IC50 [19]: > 30000 nM; EC50 (Cryptosporidium parvum [20]): 600 nM; Cmax (in vivo [21]): 8.5 µM; Tmax (in vivo [22]): 0.667 h |
| CCOc1ccc2cc(-c3nn(CC(C)(C)CO)c(N)c3C(N)=O)cnc2c1 | Non-Toxic | Non-Toxic |  |  |  |  | > 100 |  | > 10000 |  |
| CC(CCO)n1nc(-c2cnc3cc(OC4CC4)ccc3c2)c(C(N)=O)c1N (stereo unspecified) | Non-Toxic | Non-Toxic | 4.5 | 0.1 | 11769 |  |  | 2 | > 10000 | half-life [18]: 2.05 h; fraction unbound [6]: 0.49; solubility ([7]; pH 2.0 solution): > 100 µM; solubility ([8]; pH 6.5 solution): > 100 µM; IC50 [19]: > 30000 nM; EC50 (Cryptosporidium parvum [20]): 430 nM; Cmax (in vivo [21]): 69.2 µM; Tmax (in vivo [22]): 0.5 h |
